Structures are written as SMILES. Values after ≈ are worked out from the molar mass of the structure shown.

The test system of one experiment is M. tuberculosis H37Rv (ATCC 27294). In words: MIC determination by broth dilution against M. tuberculosis H37Rv. The format is cell-based, Mycobacterium tuberculosis. Particulars: M. tuberculosis H37Rv, broth dilution, 3 weeks at 37° C., read visually (no turbidity).
Take `CC1=C(OCCCCCN2CCN(c3ccnc4cc(C(F)(F)F)ccc34)CC2)C(C)SC1=O` (stereo not shown) [Compound 3a, 3,5-dimethyl-4-[(5-4-[7-(trifluoromethyl)-4-quinolyl]piperazinopentyl)oxy]-5H-thiophen-2-one]: the MIC is 16 µg/mL (≈ 32.4 µM).

Molecule `CC1=C(OCCCCCCN2CCN(c3ccnc4cc(C(F)(F)F)ccc34)CC2)C(C)SC1=O` (stereo not shown) [Compound 3b, 3,5-dimethyl-4-[(6-4-[7-(trifluoromethyl)-4-quinolyl]piperazinohexyl)oxy]-5H-thiophen-2-one] displayed an MIC of 16 µg/mL (≈ 31.5 µM).

In turn, `CC1=C(OCCCCCCCCN2CCN(c3ccnc4cc(C(F)(F)F)ccc34)CC2)C(C)SC1=O` (stereo not shown) [Compound 3c, 3,5-dimethyl-4-[(8-4-[7-(trifluoromethyl)-4-quinolyl]piperazinooctyl)oxy]-5H-thiophen-2-one] returned an MIC of 16 µg/mL (≈ 29.9 µM).

In the case of `CC1=C(OCCCCCCCCCN2CCN(c3ccnc4cc(C(F)(F)F)ccc34)CC2)C(C)SC1=O` (stereo not shown) [Compound 3d, 3,5-dimethyl-4-[(9-4-[7-(trifluoromethyl)-4-quinolyl]piperazinononyl)oxy]-5H-thiophen-2-one], the MIC was determined as 16 µg/mL (≈ 29.1 µM).

Take `CC1=C(OCCCCCCCCCCN2CCN(c3ccnc4cc(C(F)(F)F)ccc34)CC2)C(C)SC1=O` (stereo not shown) [Compound 3e, 3,5-dimethyl-4-[(10-4-[7-(trifluoromethyl)-4-quinolyl]piperazinodecyl)oxy]-5H-thiophen-2-one]: the MIC is 16 µg/mL (≈ 28.4 µM).

As for `CC1=C(OCCCCCN2CCCN(c3ccnc4cc(C(F)(F)F)ccc34)CC2)C(C)SC1=O` (stereo not shown) [Compound 5a, 3,5-dimethyl-4-[(5-4-[7-(trifluoromethyl)-4-quinolyl]-1,4-diazepan-1-ylpentyl)oxy]-5H-thiophen-2-one], the MIC worked out at 16 µg/mL (≈ 31.5 µM).

Molecule `CC1=C(OCCCCCCN2CCCN(c3ccnc4cc(C(F)(F)F)ccc34)CC2)C(C)SC1=O` (stereo not shown) [Compound 5b, 3,5-dimethyl-4-[(6-4-[7-(trifluoromethyl)-4-quinolyl]-1,4-diazepan-1-ylhexyl)oxy]-5H-thiophen-2-one] showed an MIC of 16 µg/mL (≈ 30.7 µM).

For the molecule `CC1=C(OCCCCCCCCN2CCCN(c3ccnc4cc(C(F)(F)F)ccc34)CC2)C(C)SC1=O` (stereo not shown) [Compound 5c, 3,5-dimethyl-4-[(8-4-[7-(trifluoromethyl)-4-quinolyl]-1,4-diazepan-1-yloctyl)oxy]-5H-thiophen-2-one], the MIC is 16 µg/mL (≈ 29.1 µM).

For the molecule `CC1=C(OCCCCCCCCCN2CCCN(c3ccnc4cc(C(F)(F)F)ccc34)CC2)C(C)SC1=O` (stereo not shown) [Compound 5d, 3,5-dimethyl-4-[(9-4-[7-(trifluoromethyl)-4-quinolyl]-1,4-diazepan-1-ylnonyl)oxy]-5H-thiophen-2-one], the MIC came to 16 µg/mL (≈ 28.4 µM).

Take `CC1=C(OCCCCCCCCCCN2CCCN(c3ccnc4cc(C(F)(F)F)ccc34)CC2)C(C)SC1=O` (stereo not shown) [Compound 5e, 3,5-dimethyl-4-[(10-4-[7-(trifluoromethyl)-4-quinolyl]-1,4-diazepan-1-yldecyl)oxy]-5H-thiophen-2-one]: the MIC stood at 8 µg/mL (≈ 13.8 µM).

In the case of `CC1=C(OCCCCCCCCCCCCN2CCCN(c3ccnc4cc(C(F)(F)F)ccc34)CC2)C(C)SC1=O` (stereo not shown) [Compound 5f, 3,5-dimethyl-4-[(12-4-[7-(trifluoromethyl)-4-quinolyl]-1,4-diazepan-1-yldodecyl)oxy]-5H-thiophen-2-one], the MIC was 8 µg/mL (≈ 13.2 µM).

`C=C/C(C)=C/[C@@]1(C)SC(=O)C(C)=C1O` [Thiolactomycin, reference compound] gave an MIC of 25 µg/mL (≈ 119 µM).

Still in this experiment, the particulars now being: Mycobacterium tuberculosis, 504 h; M. tuberculosis H37Rv, broth dilution, 3 weeks at 37° C., read visually (no turbidity); read-out: MIC.
For the molecule `CC1=C(OCCCCCN2CCN(c3ccnc4cc(Cl)ccc34)CC2)C(C)SC1=O` (stereo not shown) [Compound 4a, 3,5-dimethyl-4-(5-[4-(7-chloro-4-quinolyl)piperazino]pentyloxy)-5H-thiophen-2-one], the MIC turned out to be 16 µg/mL (≈ 34.8 µM).

Regarding `CC1=C(OCCCCCCN2CCN(c3ccnc4cc(Cl)ccc34)CC2)C(C)SC1=O` (stereo not shown) [Compound 4b, 3,5-dimethyl-4-(6-[4-(7-chloro-4-quinolyl)piperazino]hexyloxy)-5H-thiophen-2-one], the MIC came to 16 µg/mL (≈ 33.8 µM).

As for `CC1=C(OCCCCCCCCN2CCN(c3ccnc4cc(Cl)ccc34)CC2)C(C)SC1=O` (stereo not shown) [Compound 4c, 3,5-dimethyl-4-(8-[4-(7-chloro-4-quinolyl)piperazino]octyloxy)-5H-thiophen-2-one], the MIC worked out at 8 µg/mL (≈ 15.9 µM).

In the case of `CC1=C(OCCCCCCCCCN2CCN(c3ccnc4cc(Cl)ccc34)CC2)C(C)SC1=O` (stereo not shown) [Compound 4d, 3,5-dimethyl-4-(9-[4-(7-chloro-4-quinolyl)piperazino]nonyloxy)-5H-thiophen-2-one], the MIC was determined as 8 µg/mL (≈ 15.5 µM).

Turning to `CC1=C(OCCCCCCCCCCN2CCN(c3ccnc4cc(Cl)ccc34)CC2)C(C)SC1=O` (stereo not shown) [Compound 4e, 3,5-dimethyl-4-(10-[4-(7-chloro-4-quinolyl)piperazino]decyloxy)-5H-thiophen-2-one], the MIC was 8 µg/mL (≈ 15.1 µM).

Take `CC1=C(OCCCCCCCCCCCCN2CCN(c3ccnc4cc(Cl)ccc34)CC2)C(C)SC1=O` (stereo not shown) [Compound 4f, 3,5-dimethyl-4-(12-[4-(7-chloro-4-quinolyl)piperazino]dodecyloxy)-5H-thiophen-2-one]: the MIC was 8 µg/mL (≈ 14.3 µM).

For `CC1=C(OCCCCCN2CCCN(c3ccnc4cc(Cl)ccc34)CC2)C(C)SC1=O` (stereo not shown) [Compound 6a, 3,5-dimethyl-4-(5-[4-(7-chloro-4-quinolyl)-1,4-diazepan-1-yl]pentyloxy)-5H-thiophen-2-one], the MIC was 16 µg/mL (≈ 33.8 µM).

In the case of `CC1=C(OCCCCCCN2CCCN(c3ccnc4cc(Cl)ccc34)CC2)C(C)SC1=O` (stereo not shown) [Compound 6b, 3,5-dimethyl-4-(6-[4-(7-chloro-4-quinolyl)-1,4-diazepan-1-yl]hexyloxy)-5H-thiophen-2-one], the MIC is 8 µg/mL (≈ 16.4 µM).

Turning to `CC1=C(OCCCCCCCCN2CCCN(c3ccnc4cc(Cl)ccc34)CC2)C(C)SC1=O` (stereo not shown) [Compound 6c, 3,5-dimethyl-4-(8-[4-(7-chloro-4-quinolyl)-1,4-diazepan-1-yl]octyloxy)-5H-thiophen-2-one], the MIC amounted to 16 µg/mL (≈ 31 µM).

Turning to `CC1=C(OCCCCCCCCCN2CCCN(c3ccnc4cc(Cl)ccc34)CC2)C(C)SC1=O` (stereo not shown) [Compound 6d, 3,5-dimethyl-4-(9-[4-(7-chloro-4-quinolyl)-1,4-diazepan-1-yl]nonyloxy)-5H-thiophen-2-one], the MIC was found to be 8 µg/mL (≈ 15.1 µM).

For `CC1=C(OCCCCCCCCCCN2CCCN(c3ccnc4cc(Cl)ccc34)CC2)C(C)SC1=O` (stereo not shown) [Compound 6e, 3,5-dimethyl-4-(10-[4-(7-chloro-4-quinolyl)-1,4-diazepan-1-yl]decyloxy)-5H-thiophen-2-one], the MIC worked out at 16 µg/mL (≈ 29.4 µM).

`CC1=C(OCCCCCCCCCCCCN2CCCN(c3ccnc4cc(Cl)ccc34)CC2)C(C)SC1=O` (stereo not shown) [Compound 6f, 3,5-dimethyl-4-(12-[4-(7-chloro-4-quinolyl)-1,4-diazepan-1-yl]dodecyloxy)-5H-thiophen-2-one]: the MIC worked out at 4 µg/mL (≈ 6.99 µM).

For `NNC(=O)c1ccncc1` [Isoniazid, reference compound], the MIC turned out to be 0.5 µg/mL (≈ 3.65 µM).

With `C=C/C(C)=C/[C@@]1(C)SC(=O)C(C)=C1O` [Thiolactomycin, reference compound], the MIC is 25 µg/mL (≈ 119 µM).

Another experiment concerns M. tuberculosis XDR-1 (XDR- strain). In words: microbe, parasite or virus in culture. Format: cell-based, Mycobacterium tuberculosis. Particulars: Mycobacterium tuberculosis, 504 h.
`NNC(=O)c1ccncc1` [Isoniazid, reference compound] registered an MIC of 0.5 µg/mL (≈ 3.65 µM).

Regarding `C=C/C(C)=C/[C@@]1(C)SC(=O)C(C)=C1O` [Thiolactomycin, reference compound], the MIC was 25 µg/mL (≈ 119 µM).

A further experiment has as its system M. tuberculosis -617 (MDR- strain). In words: microbe, parasite or virus in culture. The format is cell-based, Mycobacterium tuberculosis. As to conditions: Mycobacterium tuberculosis, 504 h.
Consider `NNC(=O)c1ccncc1` [Isoniazid, reference compound], for which the MIC is 128 µg/mL (≈ 933 µM).

The molecule `C=C/C(C)=C/[C@@]1(C)SC(=O)C(C)=C1O` [Thiolactomycin, reference compound] gave an MIC of 25 µg/mL (≈ 119 µM).

Another experiment relates to M. tuberculosis H37Rv. In words: In vivo efficacy in murine model of M. tuberculosis H37Rv infection. On the set-up: species or system mice (BALB/c). As to conditions: BALB/c mice, intranasal infection, treatment from 1 week post infection, PO once daily for 4 weeks; RIF 20 mg/kg, 3f 25 mg/kg. Here is the method:
The Compound 3f used in this study ([…]). The compound 3f was tested in vivo at 25 mg/kg. Rifampicin at 20 mg/kg was also tested as positive control. For in vivo studies compound and rifampicin was dissolved in pure DMSO and formulation was prepared 50% PEG in water for oral administration. The final concentration of DMSO was less than 0.1% v/v.
The institutional animal Ethics committee of the Indian Institute of Integrative Medicine (CSIR, Jammu) approved all experimental protocols with animals and the use of animals. The animals were bred and maintained under standard husbandry conditions; viz. humidity, temperature (25±2° C.). 8-week-old female (BALB/c) mice 20-22 gm by weight were used for the efficacy studies. Animals were allowed 1 week of acclimation before intake into experimental studies. Feed and water were given ad libitum.
Infection of M. tuberculosis:
M. tuberculosis (H37Rv) for infection was grown by the culturing of bacteria from Lowenstein-Jensen slant in Middlebrooke 7H9 medium on a rotary shaker for 10 days at 37° C. […] The mice were sacrificed after week post infection (early control), and bacterial numbers in the lungs were determined by macerating the organs (lung) and plating serial tenfold serial dilution on Middlebrook 7H10 agar plates in triplicates. […]
Eight infected mice were sacrificed from the control group 7 day after the infection (before the initiation of treatment) to obtain the initial CFU load of M. tuberculosis H37Rv at the initiation of treatment. […] Viable bacteria were quantitated by plating 10-fold serial dilutions in duplicates on Middlebrook, 7H10 agar supplemented with 10% OADC (oleic acid albumin dextrose catalase, Becton Dickinson, Sparks, Md.) and incubated at 37° C. in 5% CO2 for 4-6 weeks. CFU per organ sample was counted and expressed as log10 CFU per organ. CFU during in-vivo studies were determined on Middlebrook 7H10 plates supplement with 10% OADC containing Vancomycin 10 μg/ml, Amphoterecin 10 μg/ml, Nalidaxic acid 25 μg/ml. […]
Turning to `CO[C@H]1/C=C/O[C@@]2(C)Oc3c(C)c(O)c4c(O)c(c(/C=N/N5CCN(C)CC5)c(O)c4c3C2=O)NC(=O)/C(C)=C\C=C\[C@H](C)[C@H](O)[C@@H](C)[C@@H](O)[C@@H](C)[C@H](OC(C)=O)[C@@H]1C` [RIF, Rifampicin, reference compound], the “Log10 CFU/left Lung (mean ± SD)” value is recorded as 2.0 ± 0.41 Log10 CFU/left Lung.

The record behind these values is patent publication US9085557B2, “Quinolylpiperazino substituted thiolactone compounds and process for the preparation thereof” (Council of Scientific and Industrial Research, priority 2010, dated 2015).
